From patent US5958873A, “Oral formulation for treatment of bacteria-induced diseases of the colon” (University of Cincinnati, priority 1997, dated 1999)
In brackets after ≈: the same amount, converted by molar mass.

What was measured:
Bacteroides fragilis = test: In vitro MIC against clinical isolates of B. fragilis (same agar method); type: cell-based; conditions: 23 clinical isolates of B. fragilis; calculated geometrically
C. difficile = test: In vitro MIC against clinical isolates of C. difficile (Brucella agar with sheep's blood, anaerobic); type: cell-based, Clostridium difficile

Compound	MIC50 (Bacteroides fragilis) [μml]	MIC90 (Bacteroides fragilis) [μml]	MIC range (C. difficile; 60 clinical isolates of C. difficile)	MIC50 (C. difficile) [mg/L]	MIC90 (C. difficile) [mg/L]	MIC range (C. difficile; in µg/mL)
CCC[C@@H]1C[C@@H](C(=O)N[C@@H]([C@H]2O[C@H](SC)[C@H](O)[C@@H](O)[C@H]2O)[C@H](C)Cl)N(C)C1 [clindamycin]	55	13				
Cc1ncc([N+](=O)[O-])n1CCO [metronidazole]	1.4	2	0.25-4 μml			
CN[C@H](CC(C)C)C(=O)N[C@H]1C(=O)N[C@@H](CC(N)=O)C(=O)N[C@H]2C(=O)N[C@H]3C(=O)N[C@H](C(=O)N[C@H](C(=O)O)c4cc(O)cc(O)c4-c4cc3ccc4O)[C@H](O)c3ccc(c(Cl)c3)Oc3cc2cc(c3O[C@@H]2O[C@H](CO)[C@@H](O)[C@H](O)[C@H]2O[C@H]2C[C@](C)(N)[C@H](O)[C@H](C)O2)Oc2ccc(cc2Cl)[C@H]1O [vancomycin]				0.38 (≈ 0.262 µM)	0.8 (≈ 0.552 µM)	0.13-2
